{"source": "patent US11434534B2", "about": "“Optimizing therapeutic options in personalized medicine” (CureMatch, Inc., priority 2016, dated 2022)", "key": {"[1]": {"test_system": "metastatic basal cell cancer", "conditions": "for response to earlier therapy: brain, bone and liver metastases, therapies before nivolumab", "from_the_text": "The interaction of this ligand (PD-L1) with the programmed death receptor (PD-1), expressed on T and B cells, alters the function of these cells leading to inhibition of autoimmunity and anti-tumor immunity.\nThe patient was started on nivolumab (OPDIVO®, anti-PD-1 antibody)."}, "[2]": {"experiment": "Tolerability in type 2 diabetes patient (Example 6)", "format": "in vivo, human", "from_the_text": "A person over-weight man (Body Mass Index=37.5, clinical obesity class 2) with a 5-year history of type 2 diabetes consults a Diabetes Specialty Clinic in Paris (France) for recent weight gain, foot pain, and persistent nocturia. At the time of their initial appointment, the patient was taking simvastatin (ZOCOR®) for a hyperlipidemia and a “pancreatic elixir” in an attempt to improve their diabetes control. […] The laboratory tests performed the same day confirms the uncontrolled type 2 diabetes (evaluated by a level of glycosylated hemoglobin=8.3%-normal<7%), a normo-lipidemia, and an elevated urine micro-albumin level. The physician ordered a urine metabolite profiling. The post-analysis review of the results highlighted the upregulation of the IL-1 (interleukin 1), TNF (Tumor Necrosis Factor), and mTOR (Mammalian Target of Rapamycin) signaling pathways.\nThe association of IL-1 and TNF inhibitors together is not considered by the system, as it increases the risk of serious infections. […] All of these drugs are approved by the ANSM (French Agency for Medicines and Medical Products Security)."}, "[3]": {"test_system": "hepatocellular carcinoma (HCC) with CDKN2A and CTNNB1 mutations", "experiment": "Clinical outcome of hepatocellular carcinoma patient (Example 1)", "format": "in vivo, human", "conditions": "metastatic HCC after chemoembolization, before molecular profiling", "from_the_text": "Six months later, the physician logs in to the system via the web-interface and completes the physician's feedback survey regarding the regimen prescribed to their patient and the outcome observed. […] The entry corresponding to this observation was created in the clinical outcome database and will then be used in order to optimize similar cases."}}}
{"molecule": "N.N.[Cl][Pt][Cl]", "note": "[cisplatin]", "values": [{"measurement": "response to earlier therapy", "setting": "[1]", "value": "short-lived response"}]}
{"molecule": "COc1ccc(Cl)cc1C(=O)NCCc1ccc(S(=O)(=O)NC(=O)NC2CCCCC2)cc1", "note": "[glibenclamide]", "values": [{"measurement": "adverse effects that led to stopping the drug", "setting": "[2]; human, in vivo", "value": "dizziness, sweating, and agitation"}]}
{"molecule": "CC(=O)O[C@H]1C(=O)[C@@]2(C)[C@H]([C@H](OC(=O)c3ccccc3)[C@]3(O)C[C@H](OC(=O)[C@H](O)[C@@H](NC(=O)c4ccccc4)c4ccccc4)C(C)=C1C3(C)C)[C@]1(OC(C)=O)CO[C@@H]1C[C@@H]2O", "note": "[paclitaxel]", "values": [{"measurement": "response to earlier therapy", "setting": "[1]", "value": "short-lived response"}]}
{"molecule": "CCC(C)(C)C(=O)O[C@H]1C[C@@H](C)C=C2C=C[C@H](C)[C@H](CC[C@@H]3C[C@@H](O)CC(=O)O3)[C@H]21", "note": "[simvastatin]", "values": [{"measurement": "tolerability", "setting": "[2]; taken for hyperlipidemia", "value": "well-tolerated"}]}
{"molecule": "Cc1c(C(=O)Nc2ccc(N3C[C@@H](C)O[C@@H](C)C3)nc2)cccc1-c1ccc(OC(F)(F)F)cc1", "note": "[sonidegib]", "values": [{"measurement": "response to earlier therapy", "setting": "[1]", "value": "non-responsive"}]}
{"molecule": "CNC(=O)c1cc(Oc2ccc(NC(=O)Nc3ccc(Cl)c(C(F)(F)F)c3)cc2)ccn1", "note": "[sorafenib]", "values": [{"measurement": "disease course under treatment", "setting": "[3]", "value": "continued to progress"}]}
{"molecule": "CS(=O)(=O)c1ccc(C(=O)Nc2ccc(Cl)c(-c3ccccn3)c2)c(Cl)c1", "note": "[vismodegib]", "values": [{"measurement": "response to earlier therapy", "setting": "[1]", "value": "non-responsive"}]}
{"molecule": "nivolumab: anti-PD-1 antibody", "values": [{"measurement": "response on scans", "setting": "[1]; after two months, PD-L1 (CD274) amplification", "value": "remarkable partial remission"}, {"measurement": "toxicity", "setting": "[1]; human, in vivo", "value": "no toxicity"}]}
